Experimental data: US6312703A, “Compressed lecithin preparations” (Lecigel, LLC, priority 1999, dated 2001)

How the values were obtained:
[1] = test system: serum cholesterol; test: Cholesterol lowering in hamsters fed LCP, Lescol or the combination, bled after two weeks; type: in vivo, Golden Syrian hamsters; details: diet with 2% LCP and/or 0.01% Lescol
Description: A study was performed to compare the effects of cholesterol reduction using the 2% LCP alone, 0.01% Lescol (a HMG CoA reductase inhibitor) alone, and a combination of 0.01% Lescol mixed with the phospholipids and extruded to create the LCP. The dosage was administered to Golden Syrian hamsters which were bled after two weeks to determine the cholesterol lowering effects.

[2] = test system: LDL cholesterol; details: 60 hypercholesterolemic patients; Gurevich et al.; cited from earlier work

SMILES: CC(C)n1c(/C=C/[C@@H](O)C[C@@H](O)CC(=O)O)c(-c2ccc(F)cc2)c2ccccc21 (racemic) [Lescol]
- HDL [1]: 1.77 ± 0.16
- Non HDL [1]: 1.61 ± 0.63
- Total Cholesterol [1]: 3.37 ± 0.67

SMILES: CC[C@H](C)C(=O)O[C@H]1C[C@@H](C)C=C2C=C[C@H](C)[C@H](CC[C@@H]3C[C@@H](O)CC(=O)O3)[C@H]21 [Lovastatin]
- Lovastatin dose required to reduce LDL cholesterol level to a value of 130 [2]: 40 mg/day
